Measured values taken from patent publication US9169229B2, “Method for producing purified dialkyl-furan-2,5-dicarboxylate by physical separation and solid liquid separation” (Eastman Chemical Company, priority 2012, dated 2015).

Tests used:
[1] = Solubility of DMFD in water (jacketed solubility cell, samples analyzed by gas chromatography); type: physicochemical
Description: (§1) The solubility of DMFD in water and methanol was tested according to the following procedure: A jacketed 120 ml solubility cells equipped with a condenser, a digital thermometer, a nitrogen blanket and connected to a circulating bath capable of heating/cooling was charged with […] and water or methanol. The heterogeneous mixture was heated to the desired temperature and sample was taken using preheated fritted glass pipette. The samples were analyzed using gas chromatography.

[2] = Solubility of DMFD in methanol (jacketed solubility cell, samples analyzed by gas chromatography); type: physicochemical
Description: as §1

Question: With `COC(=O)c1ccc(C(=O)OC)o1` [DMFD, dimethyl furan-2,5-dicarboxylate] as the compound, how does the “solubility of DMFD in water compared to methanol (in words)” value ([1]; temperature points from about 1° C. to about 61° C.) read?
Answer: very low solubility in water compared to methanol

Question: What about the “DMFD Solubility (wt %) in Water” value ([1]; T 1.4 ° C.) of the same compound?
Answer: BDL

Question: And the “DMFD Solubility (wt %) in Water” value ([1]; T 13.1 ° C.)?
Answer: BDL

Question: What about the “DMFD Solubility (wt %) in Water” value ([1]; T 26.6 ° C.) of the same compound?
Answer: BDL

Question: And the “DMFD Solubility (wt %) in Water” value ([1]; T 35.6 ° C.)?
Answer: BDL

Question: And the “DMFD Solubility (wt %) in Water” value ([1]; T 47.0 ° C.)?
Answer: 0.1 wt %

Question: What about the “DMFD Solubility (wt %) in Water” value ([1]; T 56.6 ° C.) of the same compound?
Answer: 0.2 wt %

Question: And the “DMFD Solubility (wt %) in Water” value ([1]; T 63.9 ° C.)?
Answer: 0.3 wt %

Question: And the “DMFD Solubility (wt %) in Water” value ([1]; T 74.6 ° C.)?
Answer: 0.4 wt %

Question: And the “DMFD Solubility (wt %) in Water” value ([1]; T 89.5 ° C.)?
Answer: 0.9 wt %

Question: What about the “DMFD Solubility (wt %) in Water” value ([1]; T 97.5 ° C.) of the same compound?
Answer: 1.3 wt %

Question: And the “DMFD Solubility (wt %) in Methanol” value ([2]; T 1.0 ° C.)?
Answer: 0.6 wt %

Question: What about the “DMFD Solubility (wt %) in Methanol” value ([2]; T 14.1 ° C.) of the same compound?
Answer: 1.4 wt %

Question: What about the “DMFD Solubility (wt %) in Methanol” value ([2]; T 26.3 ° C.) of the same compound?
Answer: 2.8 wt %

Question: What about the “DMFD Solubility (wt %) in Methanol” value ([2]; T 35.3 ° C.) of the same compound?
Answer: 4.5 wt %

Question: What about the “DMFD Solubility (wt %) in Methanol” value ([2]; T 46.6 ° C.) of the same compound?
Answer: 8.7 wt %

Question: And the “DMFD Solubility (wt %) in Methanol” value ([2]; T 56.1 ° C.)?
Answer: 15.4 wt %

Question: What about the “DMFD Solubility (wt %) in Methanol” value ([2]; T 61.3 ° C.) of the same compound?
Answer: 20.8 wt %
